PubChem BioAssay AID624129 (Sanford-Burnham Center for Chemical Genomics, 2012)
Activity calls are given as the source filed them. How the calls were made is not given here.

What was measured:
Experiment in all cases: potency against CXCR6 with APJ panel – cell-based, beta-arrestin, DiscoveRx, uHTS hits, dose response (AID 624129)
[1] = target: C-C chemokine receptor type 6 (Homo sapiens) (UniProt P51684); settings: CXCR6 beta-arrestin (DiscoveRx) antagonist cell assay
[2] = target: C-X-C chemokine receptor type 6 (Homo sapiens) (UniProt O00574); settings: CXCR6 beta-arrestin (DiscoveRx) antagonist cell assay; for inhibition: CXCR6, run 1, dose range 2, at 80 µM (top of the series)
Sequence of C-X-C chemokine receptor type 6 (Homo sapiens) (O00574 whole entry, looked up): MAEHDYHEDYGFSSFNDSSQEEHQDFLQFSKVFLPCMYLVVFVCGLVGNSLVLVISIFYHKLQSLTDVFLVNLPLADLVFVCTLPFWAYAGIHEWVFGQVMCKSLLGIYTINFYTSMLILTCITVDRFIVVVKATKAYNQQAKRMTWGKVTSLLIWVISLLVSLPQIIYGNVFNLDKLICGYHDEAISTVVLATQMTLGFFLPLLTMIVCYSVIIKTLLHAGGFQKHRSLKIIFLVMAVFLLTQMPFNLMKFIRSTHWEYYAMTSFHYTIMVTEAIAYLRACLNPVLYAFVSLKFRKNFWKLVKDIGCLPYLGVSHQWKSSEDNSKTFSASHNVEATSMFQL

[3] = target: Apelin receptor (Homo sapiens) (UniProt P35414); settings: CXCR6 beta-arrestin (DiscoveRx) antagonist cell assay, APJ
[4] = target: Beta-galactosidase (Escherichia coli) (UniProt Q8VNN2); settings: CXCR6 beta-arrestin (DiscoveRx) antagonist cell assay, b-galactosidase
Sequence of Beta-galactosidase (Escherichia coli) (Q8VNN2 whole entry, looked up): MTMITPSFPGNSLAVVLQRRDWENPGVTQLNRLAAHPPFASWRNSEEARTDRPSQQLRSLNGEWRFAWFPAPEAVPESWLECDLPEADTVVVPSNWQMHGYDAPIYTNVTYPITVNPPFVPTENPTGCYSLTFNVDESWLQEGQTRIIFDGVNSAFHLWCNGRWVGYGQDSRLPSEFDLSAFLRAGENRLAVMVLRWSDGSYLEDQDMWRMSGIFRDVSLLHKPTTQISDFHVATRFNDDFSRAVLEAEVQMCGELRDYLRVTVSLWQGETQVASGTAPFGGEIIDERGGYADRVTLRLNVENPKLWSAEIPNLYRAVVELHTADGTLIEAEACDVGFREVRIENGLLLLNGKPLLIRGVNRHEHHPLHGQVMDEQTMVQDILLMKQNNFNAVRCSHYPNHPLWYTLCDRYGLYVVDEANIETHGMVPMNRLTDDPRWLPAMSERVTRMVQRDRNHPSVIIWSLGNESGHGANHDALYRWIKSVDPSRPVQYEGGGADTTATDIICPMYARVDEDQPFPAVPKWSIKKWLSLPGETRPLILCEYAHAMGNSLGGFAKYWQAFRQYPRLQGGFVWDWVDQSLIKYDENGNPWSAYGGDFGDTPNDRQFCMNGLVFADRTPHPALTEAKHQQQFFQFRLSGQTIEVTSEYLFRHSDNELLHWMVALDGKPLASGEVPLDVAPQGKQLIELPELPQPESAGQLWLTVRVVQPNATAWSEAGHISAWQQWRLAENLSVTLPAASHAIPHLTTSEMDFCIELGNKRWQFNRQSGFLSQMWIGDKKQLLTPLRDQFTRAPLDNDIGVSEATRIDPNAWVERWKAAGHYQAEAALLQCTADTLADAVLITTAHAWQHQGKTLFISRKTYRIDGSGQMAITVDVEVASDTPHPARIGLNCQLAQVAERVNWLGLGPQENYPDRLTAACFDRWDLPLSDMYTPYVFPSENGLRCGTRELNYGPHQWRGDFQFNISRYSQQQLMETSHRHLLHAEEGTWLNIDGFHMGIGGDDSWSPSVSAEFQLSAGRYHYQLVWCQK

[5] = CCR6, dose range 1, mean IC50 across replicates
[6] = CXCR6, dose range 1, mean IC50 across replicates
[7] = dose range 1, mean IC50 across replicates

Row | Structure (SMILES) | IC50 ([1]; CCR6, dose range 1) [µM] | IC50 [1, 5] [µM] | IC50 ([1]; CCR6, run 2, dose range 1) [µM] | IC50 ([2]; CXCR6, dose range 1) | IC50 [2, 6] [µM] | IC50 ([2]; CXCR6, run 1, dose range 2) [µM] | IC50 ([2]; CXCR6, run 2, dose range 1) [µM] | IC50 ([2]; CXCR6, run 2, dose range 2) [µM] | IC50 ([3]; dose range 1) | IC50 [3, 7] [µM] | IC50 ([3]; run 2, dose range 1) [µM] | IC50 ([3]; run 3, dose range 1) [µM] | IC50 ([4]; dose range 1) | IC50 [4, 7] [µM] | inhibition [2] [%]
1 | O=C(OCn1ncc(Cl)c(Cl)c1=O)c1cccc(C(F)(F)F)c1 | 14 | 16.1 | 18.2 | inactive | 23.5 |  | 19 |  | 21.6 µM | 31.7 | 32.5 | 40.9 | > 80 µM (inactive) | > 80 | 128
2 | O=S(=O)(/C=C/C=C/S(=O)(=O)c1ccccc1)c1ccccc1 | 7.48 | 7.41 | 7.33 | 11.6 µM | 10.5 | 10.1 | 8.76 | 11.4 | 23.5 µM | 24.6 | 25.7 | > 80 | > 80 µM (inactive) | > 80 | 
3 | CCC(=O)OCCNc1cc(Sc2nccn2C)c2nonc2c1[N+](=O)[O-] | 3.47 | 3.87 | 4.26 | 4.22 µM | 4.65 | 4.99 | 4.74 | 4.65 | 7.36 µM | 6.04 | 4.7 | 6.06 | > 80 µM (inactive) | > 80 | 
4 | C=C1CC(COc2ccc3c(C)c(Cl)c(=O)oc3c2)(c2ccccc2)OC1=O (stereo not given) | 0.174 | 1.42 | 2.66 | 3.92 µM | 3.92 |  | > 80 |  | > 80 µM (inactive) | 35.3 | 54.2 | 16.4 | > 80 µM (inactive) | > 80 | 55.2
5 | Oc1c(Cl)cc(Cl)c2cccnc12 | 2.48 | 2.71 | 2.94 | 4.45 µM | 4.17 |  | 3.89 |  | 3.23 µM | 3.82 | 4.91 | 3.34 | > 80 µM (inactive) | > 80 | 90.2
6 | COc1ccc(OC)c(NC(=O)c2nc(S(=O)(=O)Cc3ccccc3)ncc2Cl)c1 | 7.57 | 7.24 | 6.9 | 7.68 µM | 8.6 | 8.96 | 8.78 | 8.98 | 13.7 µM | 12.6 | 11.4 | > 80 | > 80 µM (inactive) | > 80 | 
7 | Oc1cccc2ccc(/C=C/c3cccs3)nc12 | 3.95 | 5.65 | 7.36 |  | 4.43 | 2.77 | 6.87 | 3.64 | 5.07 µM | 4.98 | > 80 | 4.89 | > 80 µM (inactive) | > 80 | 
8 | Cc1cccc(CSc2cccc3cccnc23)c1 | 3.94 | 4.64 | 5.33 | 3.79 µM | 3.51 | 2.78 | 4.39 | 3.09 | 2.86 µM | 3.95 | 4.91 | 4.08 | > 80 µM (inactive) | > 80 | 
9 | O=C(Nc1nc(-c2ccccn2)cs1)c1cc(Cl)ccc1[N+](=O)[O-] |  | > 80 | > 80 | > 80 µM (inactive) | > 80 |  | > 80 |  |  | > 80 | > 80 | > 80 | > 80 µM (inactive) | > 80 | -48.8
10 | FC(F)(F)c1cnc(NNC(=S)Nc2ccc(Cl)cc2)c(Cl)c1 | 10.9 | 10.5 | 10.1 | inactive | 12.1 | 7.71 | 14.5 | 14.1 | 12.3 µM | 12.6 | 17 | 8.55 | 40.5 µM | 40.5 | 
11 | CC(C)c1ccc(O)c(NC(=S)NC(=O)c2cccnc2)c1 | 10.6 | 10 | 9.43 | inactive | 14.9 | 12.7 | 20.7 | 8.67 | 8.65 µM | 9.87 | 10.6 | 10.4 | inactive | 51.9 | 

More lines, now with the values ahead:

Row | IC50 ([1]; CCR6, dose range 1) [µM] | IC50 [1, 5] [µM] | IC50 ([1]; CCR6, run 2, dose range 1) [µM] | IC50 ([2]; CXCR6, dose range 1) | IC50 [2, 6] [µM] | IC50 ([2]; CXCR6, run 1, dose range 2) [µM] | IC50 ([2]; CXCR6, run 2, dose range 1) [µM] | IC50 ([2]; CXCR6, run 2, dose range 2) [µM] | IC50 ([3]; dose range 1) | IC50 [3, 7] [µM] | IC50 ([3]; run 2, dose range 1) [µM] | IC50 ([3]; run 3, dose range 1) [µM] | IC50 ([4]; dose range 1) | IC50 [4, 7] [µM] | inhibition [2] [%] | Structure (SMILES)
12 | 0.987 | 1.19 | 1.4 | 1.55 µM | 1.14 | 0.861 | 1.37 | 0.779 | 0.853 µM | 1.01 | 1.4 | 0.79 | > 80 µM (inactive) | > 80 |  | C/C(=N\NC(=O)c1ccc(F)cc1)c1ccccn1
13 | 10.8 | 11.7 | 12.5 | inactive | 12.5 |  | 10.1 |  | 17 µM | 18.7 | 18.8 | 20.2 | > 80 µM (inactive) | > 80 | 117 | C=CS(=O)(=O)c1c2cc(OC)ccc2nc2ccc(OC)cc12
14 | 2.2 | 2.6 | 3 | 4.5 µM | 3.54 |  | 2.58 |  | 4.63 µM | 5.01 | 5.47 | 4.92 | > 80 µM (inactive) | > 80 | 129 | Cc1ccnc(N2C(=O)c3cccc4c([N+](=O)[O-])ccc(c34)C2=O)c1
15 | 7.58 | 8.35 | 9.11 | 7.96 µM | 10.4 | 7.49 | 16 | 10 | 8.68 µM | 15.4 | 10.6 | 27.1 | > 80 µM (inactive) | > 80 |  | CCCCOc1ccc(C(=O)NNC(=S)NC(=O)CC)cc1
16 | 2.72 | 2.47 | 2.23 | 3.59 µM | 2.93 | 2.45 | 2.76 | 2.93 | 3.71 µM | 4.54 | 5.03 | 4.88 | 3.65 µM | 3.65 |  | Cc1ccc(CN2C(=O)C(Cc3ccccc3)Nc3ncnc(N4CCN(c5ccccc5)CC4)c32)cc1 (stereo not given)
17 | 5.52 | 5.34 | 5.16 | 6.36 µM | 6.45 | 7.34 | 6.05 | 6.06 | 9.71 µM | 8.18 | 7.17 | 7.67 | 29.8 µM | 29.8 |  | CC(=O)OCCNc1cc(Sc2nc3ccccc3[nH]2)c2nonc2c1[N+](=O)[O-]
18 | 12.2 | 12.1 | 11.9 | inactive | 15 | 9.07 | 22.8 | 10.6 | 9.86 µM | 31 | 13.8 | 69.4 | > 80 µM (inactive) | > 80 |  | COc1ccccc1C(=O)NNC(=S)NC(=O)c1cccs1
19 | 2.84 | 3.1 | 3.36 | 4.9 µM | 4.9 |  | > 80 |  | 5.45 µM | 5.31 | 5.18 | > 80 | > 80 µM (inactive) | > 80 | 128 | O=C1C=CC(=O)N1c1ccc(-c2nc3ccccc3o2)cc1
20 | 2.87 | 4.41 | 5.95 | 4.35 µM | 3.68 | 3.45 | 3.7 | 3.2 | 3.53 µM | 3.82 | 3.74 | 4.18 | > 80 µM (inactive) | > 80 |  | O=c1cc(CSc2ccc(Cl)cc2)nc(-c2ccccn2)[nH]1
21 |  | > 80 | > 80 | > 80 µM (inactive) | > 80 |  | > 80 |  |  | > 80 | > 80 | > 80 | > 80 µM (inactive) | > 80 | 19.8 | O=[N+]([O-])c1ccc(S(=O)(=O)c2ccccc2)nc1
22 | 2.07 | 2.25 | 2.44 | 2.76 µM | 2.31 | 2.01 | 2.94 | 1.51 | 2.32 µM | 2.46 | 2.59 | > 80 | > 80 µM (inactive) | > 80 |  | C/C(=N\NC(=O)COc1ccccc1-c1ccccc1)c1ccccn1
